Laboratory results published in patent US20260356830A1, “COMPOUNDS FOR MODULATING RET PROTEIN” (Bristol-Myers Squibb Company, priority 2022, published 2026).

Target: T1, CCDC6-RET (Homo sapiens, UniProt P07949+Q16204+Q96SW2)
T1 construct: CCDC6 (natural N-terminal fusion partner, UniProt Q16204); endogenous in cells; host or cells: TPC-1 (parental, papillary thyroid carcinoma)
Assay: Cellular RET degradation, AlphaLISA, TPC-1 cell line
Type: cell-based
Conditions: for Dmax: TPC1, human, 24 h, read-out: Cell Density TPC-1/CCDC6-RET Ymax %; for DC50: read-out: Cell Density TPC-1/CCDC6-RET DC50, half-maximal degradation concentration, TPC-1 (CCDC6-RET), 24 hrs
Procedure, shortened: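 Luminescent AlphaLISA read of RET abundance in lysates after 24 h compound exposure (37 °C, 2% FBS DMEM) of CCDC6-RET-bearing TPC-1 cells. % degradation relative to DMSO (high) and media (low) controls, fitted to 4-parameter logistic curve for DC50 and Ymax.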

T1 sequence (Q16204+P07949 fused): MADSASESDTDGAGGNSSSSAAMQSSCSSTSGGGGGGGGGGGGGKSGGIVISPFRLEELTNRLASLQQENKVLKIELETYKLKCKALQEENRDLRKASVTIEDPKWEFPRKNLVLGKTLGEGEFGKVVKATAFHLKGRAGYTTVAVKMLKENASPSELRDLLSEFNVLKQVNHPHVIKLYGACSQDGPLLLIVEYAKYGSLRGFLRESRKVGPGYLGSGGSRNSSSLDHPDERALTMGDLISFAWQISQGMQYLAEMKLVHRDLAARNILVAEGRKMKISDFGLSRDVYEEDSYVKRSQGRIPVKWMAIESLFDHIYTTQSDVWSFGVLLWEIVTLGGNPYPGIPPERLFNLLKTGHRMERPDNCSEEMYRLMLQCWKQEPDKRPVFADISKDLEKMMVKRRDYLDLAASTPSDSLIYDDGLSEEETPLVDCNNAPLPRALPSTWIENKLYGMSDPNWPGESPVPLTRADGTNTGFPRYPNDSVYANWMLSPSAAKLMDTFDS
T1 sequence (Q96SW2 whole entry, the tested form may be a part): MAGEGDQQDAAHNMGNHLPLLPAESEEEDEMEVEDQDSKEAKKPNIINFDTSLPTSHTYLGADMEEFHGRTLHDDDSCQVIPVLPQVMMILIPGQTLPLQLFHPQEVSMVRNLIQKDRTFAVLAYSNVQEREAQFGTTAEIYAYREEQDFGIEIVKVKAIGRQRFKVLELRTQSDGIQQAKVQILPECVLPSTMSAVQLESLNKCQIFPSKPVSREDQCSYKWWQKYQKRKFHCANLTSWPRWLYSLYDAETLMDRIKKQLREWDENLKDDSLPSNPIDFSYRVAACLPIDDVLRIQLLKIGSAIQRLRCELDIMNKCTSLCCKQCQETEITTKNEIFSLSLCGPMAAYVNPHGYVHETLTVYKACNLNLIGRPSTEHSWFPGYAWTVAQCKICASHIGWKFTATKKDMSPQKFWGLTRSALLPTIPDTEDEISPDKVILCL
T1 sequence (Q16531 whole entry partner, the tested form may be a part): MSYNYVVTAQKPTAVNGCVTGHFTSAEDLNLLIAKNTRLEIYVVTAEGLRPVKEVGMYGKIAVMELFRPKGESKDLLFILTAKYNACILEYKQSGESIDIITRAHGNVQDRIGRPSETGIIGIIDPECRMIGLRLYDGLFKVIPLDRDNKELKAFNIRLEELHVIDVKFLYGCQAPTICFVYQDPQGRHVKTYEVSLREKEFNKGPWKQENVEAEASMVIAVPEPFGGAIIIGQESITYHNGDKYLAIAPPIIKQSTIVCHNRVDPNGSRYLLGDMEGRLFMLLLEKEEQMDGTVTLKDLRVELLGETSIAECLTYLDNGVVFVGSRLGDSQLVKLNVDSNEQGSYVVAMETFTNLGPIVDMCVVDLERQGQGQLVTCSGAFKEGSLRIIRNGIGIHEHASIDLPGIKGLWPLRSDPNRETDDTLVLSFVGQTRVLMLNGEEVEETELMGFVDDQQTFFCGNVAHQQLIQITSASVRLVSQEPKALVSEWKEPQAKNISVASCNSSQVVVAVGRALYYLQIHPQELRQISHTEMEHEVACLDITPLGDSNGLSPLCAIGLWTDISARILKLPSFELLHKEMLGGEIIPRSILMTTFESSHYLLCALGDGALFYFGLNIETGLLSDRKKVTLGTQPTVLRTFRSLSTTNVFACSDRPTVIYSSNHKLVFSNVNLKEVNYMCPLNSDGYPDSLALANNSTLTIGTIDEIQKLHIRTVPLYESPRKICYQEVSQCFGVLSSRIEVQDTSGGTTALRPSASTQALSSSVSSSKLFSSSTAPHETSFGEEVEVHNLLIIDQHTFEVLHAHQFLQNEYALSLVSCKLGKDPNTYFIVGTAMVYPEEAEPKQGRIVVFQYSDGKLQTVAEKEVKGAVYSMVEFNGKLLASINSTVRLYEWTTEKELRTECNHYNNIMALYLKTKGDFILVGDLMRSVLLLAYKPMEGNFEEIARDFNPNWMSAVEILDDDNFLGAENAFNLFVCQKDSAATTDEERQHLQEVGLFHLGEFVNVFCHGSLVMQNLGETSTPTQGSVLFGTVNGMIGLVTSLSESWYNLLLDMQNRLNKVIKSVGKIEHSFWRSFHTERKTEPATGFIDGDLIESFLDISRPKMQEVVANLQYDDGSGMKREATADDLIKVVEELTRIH

Dmax	DC50	Compound
> 90%	< 2 nM	CCOc1cc(-c2ccc(N3CCC(CN4CCN(C(=O)CCCCCCN5CCN(c6ccc7c(N8CCC(=O)NC8=O)nn(C)c7c6)CC5)CC4)(NC(=O)c4cc(F)ccc4F)CC3)nc2)c2c(C#N)cnn2c1 [Example 41, N-(1-(5-(3-cyano-6-ethoxypyrazolo[1,5-a]pyridin-4-yl)pyridin-2-yl)-4-((4-(7-(4-(3-(2,4-dioxotetrahydropyrimidin-1(2H)-yl)-1-methyl-1H-indazol-6-yl)piperazin-1-yl)heptanoyl)piperazin-1-yl)methyl)piperidin-4-yl)-2,5-difluorobenzamide]
60 to 90%	2 to 10 nM	CCOc1cc(-c2ccc(N3CCC(CN4CCN(C(=O)CCOCCNc5ccc6c(N7CCC(=O)NC7=O)nn(C)c6c5)CC4)(NC(=O)c4cc(F)ccc4F)CC3)nc2)c2c(C#N)cnn2c1 [Example 105, N-[1-(5-{3-cyano-6-ethoxypyrazolo[1,5-a]pyridin-4-yl}pyridin-2-yl)-4-({4-[3-(2-{[3-(2,4-dioxo-1,3-diazinan-1-yl)-1-methyl-1H-indazol-6-yl]amino}ethoxy)propanoyl]piperazin-1-yl}methyl)piperidin-4-yl]-2,5-difluorobenzamide]
> 90%	2 to 10 nM	CCOc1cc(-c2ccc(N3CCC(COCc4cn(CCCCN5CCN(c6ccc7c(c6)CN(C6CCC(=O)NC6=O)C7=O)CC5)nn4)(NC(=O)c4cc(F)ccc4F)CC3)nc2)c2c(C#N)cnn2c1 (stereo not shown) [Example 48, N-[1-[5-(3-cyano-6-ethoxy-pyrazolo[1,5-a]pyridin-4-yl)-2-pyridyl]-4-[[1-[4-[4-[2-(2,6-dioxo-3-piperidyl)-1-oxo-isoindolin-5-yl]piperazin-1-yl]butyl]triazol-4-yl]methoxymethyl]-4-piperidyl]-2,5-difluoro-benzamide]
60 to 90%	< 2 nM	CCOc1cc(-c2ccc(N3CCC(CN4CCC5(CC4)CCN(C(=O)COc4ccc6c(c4)CN(C4CCC(=O)NC4=O)C6=O)CC5)(NC(=O)c4cc(F)ccc4F)CC3)nc2)c2c(C#N)cnn2c1 (stereo not shown) [Example 99, N-[1-(5-{3-cyano-6-ethoxypyrazolo[1,5-a]pyridin-4-yl}pyridin-2-yl)-4-{[9-(2-{[2-(2,6-dioxopiperidin-3-yl)-1-oxo-2,3-dihydro-1H-isoindol-5-yl]oxy}acetyl)-3,9-diazaspiro[5.5]undecan-3-yl]methyl}piperidin-4-yl]-2,5-difluorobenzamide]
> 90%	10 to 100 nM	CCOc1cc(-c2ccc(N3CCC(CN4CC5(C4)CN(C(=O)CCN4CCC(c6ccc7c(c6)CN(C6CCC(=O)NC6=O)C7=O)CC4)C5)(NC(=O)c4cc(F)ccc4F)CC3)nc2)c2c(C#N)cnn2c1 (stereo not shown) [Example 89, N-[1-(5-{3-cyano-6-ethoxypyrazolo[1,5-a]pyridin-4-yl}pyridin-2-yl)-4-{[6-(3-{4-[2-(2,6-dioxopiperidin-3-yl)-1-oxo-2,3-dihydro-1H-isoindol-5-yl]piperidin-1-yl}propanoyl)-2,6-diazaspiro[3.3]heptan-2-yl]methyl}piperidin-4-yl]-2,5-difluorobenzamide]
60 to 90%	10 to 100 nM	CCOc1cc(-c2ccc(N3CCC(NC(=O)c4cc(F)ccc4F)(C(=O)NCCCCN4CCC(c5ccc6c(c5)C(=O)N(C5CCC(=O)NC5=O)C6)CC4)CC3)nc2)c2c(C#N)cnn2c1 (stereo not shown) [Example 162, 1-(5-{3-cyano-6-ethoxypyrazolo[1,5-a]pyridin-4-yl}pyridin-2-yl)-4-(2,5-difluorobenzamido)-N-(4-{4-[2-(2,6-dioxopiperidin-3-yl)-3-oxo-2,3-dihydro-1H-isoindol-5-yl]piperidin-1-yl}butyl)piperidine-4-carboxamide]
–	< 2 nM	CCOc1cc(-c2ccc(N3CCC(CN4CCN(C(=O)CCCCCN5CCC(c6ccc7c(N8CCC(=O)NC8=O)nn(C)c7c6)CC5)CC4)(NC(=O)c4cc(F)ccc4F)CC3)nc2)c2c(C#N)cnn2c1 [Example 42, N-(1-(5-(3-cyano-6-ethoxypyrazolo[1,5-a]pyridin-4-yl)pyridin-2-yl)-4-((4-(6-(4-(3-(2,4-dioxotetrahydropyrimidin-1(2H)-yl)-1-methyl-1H-indazol-6-yl)piperidin-1-yl)hexanoyl)piperazin-1-yl)methyl)piperidin-4-yl)-2,5-difluorobenzamide]
> 90%	2 to 10 nM	CCOc1cc(-c2ccc(N3CCC(CN4CCN(C(=O)CCCCN5CCN(c6ccc7c(N8CCC(=O)NC8=O)nn(C)c7c6)CC5)CC4)(NC(=O)c4cc(F)ccc4F)CC3)nc2)c2c(C#N)cnn2c1 [Example 40, N-(1-(5-(3-cyano-6-ethoxypyrazolo[1,5-a]pyridin-4-yl)pyridin-2-yl)-4-((4-(5-(4-(3-(2,4-dioxotetrahydropyrimidin-1(2H)-yl)-1-methyl-1H-indazol-6-yl)piperazin-1-yl)pentanoyl)piperazin-1-yl)methyl)piperidin-4-yl)-2,5-difluorobenzamide]
> 90%	2 to 10 nM	CCOc1cc(-c2ccc(N3CCC(CN4CCN(C(=O)C5CC6(C5)CC(N5CCC(c7ccc8c(c7)CN(C7CCC(=O)NC7=O)C8=O)CC5)C6)CC4)(NC(=O)c4cc(F)ccc4F)CC3)nc2)c2c(C#N)cnn2c1 (stereo not shown) [Example 92, N-[1-(5-{3-cyano-6-ethoxypyrazolo[1,5-a]pyridin-4-yl}pyridin-2-yl)-4-{[4-(6-{4-[2-(2,6-dioxopiperidin-3-yl)-1-oxo-2,3-dihydro-1H-isoindol-5-yl]piperidin-1-yl}spiro[3.3]heptane-2-carbonyl)piperazin-1-yl]methyl}piperidin-4-yl]-2,5-difluorobenzamide]
60 to 90%	10 to 100 nM	CCOc1cc(-c2ccc(N3CCC(NC(=O)c4cc(F)ccc4F)(C(=O)NCCCCN4CCN(c5ccc6c(c5)CN(C5CCC(=O)NC5=O)C6=O)CC4)CC3)nc2)c2c(C#N)cnn2c1 (stereo not shown) [Example 154, 1-(5-{3-cyano-6-ethoxypyrazolo[1,5-a]pyridin-4-yl}pyridin-2-yl)-4-(2,5-difluorobenzamido)-N-(4-{4-[2-(2,6-dioxopiperidin-3-yl)-1-oxo-2,3-dihydro-1H-isoindol-5-yl]piperazin-1-yl}butyl)piperidine-4-carboxamide]
> 90%	10 to 100 nM	CCOc1cc(-c2ccc(N3CCC(CN4CCN(CCOCCC(=O)N5CCN(c6ccc7c(c6)C(=O)N(C6CCC(=O)NC6=O)C7)CC5)CC4)(NC(=O)c4cc(F)ccc4F)CC3)nc2)c2c(C#N)cnn2c1 (stereo not shown) [Example 103, N-[1-(5-{3-cyano-6-ethoxypyrazolo[1,5-a]pyridin-4-yl}pyridin-2-yl)-4-({4-[2-(3-{4-[2-(2,6-dioxopiperidin-3-yl)-3-oxo-2,3-dihydro-1H-isoindol-5-yl]piperazin-1-yl}-3-oxopropoxy)ethyl]piperazin-1-yl}methyl)piperidin-4-yl]-2,5-difluorobenzamide]
> 90%	2 to 10 nM	CCOc1cc(-c2ccc(N3CCC(CN4CCN(C(=O)CCCCCCN5CCN(c6ccc7c(c6)CN(C6CCC(=O)NC6=O)C7=O)CC5)CC4)(NC(=O)CC(C)C)CC3)nc2)c2c(C#N)cnn2c1 (stereo not shown) [Example 3, N-(1-(5-(3-cyano-6-ethoxypyrazolo[1,5-a]pyridin-4-yl)pyridin-2-yl)-4-((4-(7-(4-(2-(2,6-dioxopiperidin-3-yl)-1-oxoisoindolin-5-yl)piperazin-1-yl)heptanoyl)piperazin-1-yl)methyl)piperidin-4-yl)-3-methylbutanamide]
> 90%	< 2 nM	CCOc1cc(-c2ccc(N3CCC(CN4CCN(C(=O)CCN5CCN(c6ccc7c(c6)C(=O)N(C6CCC(=O)NC6=O)C7)CC5)CC4)(NC(=O)c4cc(F)ccc4F)CC3)nc2)c2c(C#N)cnn2c1 (stereo not shown) [Example 12, N-(1-(5-(3-cyano-6-ethoxypyrazolo[1,5-a]pyridin-4-yl)pyridin-2-yl)-4-((4-(3-(4-(2-(2,6-dioxopiperidin-3-yl)-3-oxoisoindolin-5-yl)piperazin-1-yl)propanoyl)piperazin-1-yl)methyl)piperidin-4-yl)-2,5-difluorobenzamide]
60 to 90%	2 to 10 nM	CCOc1cc(-c2ccc(N3CCC(Cc4ccccc4)(NC(=O)N4CCC(N5CCC(c6ccc7c(c6)C(=O)N(C6CCC(=O)NC6=O)C7)CC5)CC4)CC3)nc2)c2c(C#N)cnn2c1 (stereo not shown) [Example 56, N-[4-benzyl-1-[5-(3-cyano-6-ethoxy-pyrazolo[1,5-a]pyridin-4-yl)-2-pyridyl]-4-piperidyl]-4-[4-[2-(2,6-dioxo-3-piperidyl)-3-oxo-isoindolin-5-yl]-1-piperidyl]piperidine-1-carboxamide]
60 to 90%	< 2 nM	CCOc1cc(-c2ccc(N3CCC(NC(=O)c4cc(F)ccc4F)(C(=O)NCCN4CCC(c5ccc6c(c5)C(=O)N(C5CCC(=O)NC5=O)C6)CC4)CC3)nc2)c2c(C#N)cnn2c1 (stereo not shown) [Example 161, 1-(5-{3-cyano-6-ethoxypyrazolo[1,5-a]pyridin-4-yl}pyridin-2-yl)-4-(2,5-difluorobenzamido)-N-(2-{4-[2-(2,6-dioxopiperidin-3-yl)-3-oxo-2,3-dihydro-1H-isoindol-5-yl]piperidin-1-yl}ethyl)piperidine-4-carboxamide]
60 to 90%	100 to 2000 nM	CCOc1cc(-c2ccc(N3CCC(C)(CN4CCN(C(=O)CCN5CCC(c6ccc7c(c6)CN(C6CCC(=O)NC6=O)C7=O)CC5)CC4)CC3)nc2)c2c(C#N)cnn2c1 (stereo not shown) [Example 129, 4-[6-(4-{[4-(3-{4-[2-(2,6-dioxopiperidin-3-yl)-1-oxo-2,3-dihydro-1H-isoindol-5-yl]piperidin-1-yl}propanoyl)piperazin-1-yl]methyl}-4-methylpiperidin-1-yl)pyridin-3-yl]-6-ethoxypyrazolo[1,5-a]pyridine-3-carbonitrile]
